≈ marks a conversion by molar mass, not a printed value.
These compounds were tested on Polio 2 (assay: microbe, parasite or virus in culture). Conditions: HeLa, read-out: MIC (Polio 2).
Format: cell-based, polioviruses

SMILES | MIC
Cc1cc(CCCCCOc2ccc(-c3nc4ccccc4o3)cc2)on1 [Example 6, 5-{5-[4-(2-Benzoxazolyl)phenoxy]pentyl}-3-methylisoxazole] | 0.9 µg/mL (≈ 2.48 µM)
Cc1cc(CCCCCOc2ccc(-c3cccs3)cc2)on1 [Example 2, 3-Methyl-5-{5-(4-(2-thienyl)phenoxy]pentyl}-isoxazole] | 0.02 µg/mL (≈ 0.0611 µM)
Cc1cc(CCCCCOc2ccc(-c3nc(C)c(C)s3)cc2)on1 [Example 3, 3-Methyl-5-{5-[4-(4,5-dimethyl-2-thiazolyl)phenoxy]-pentyl}isoxazole] | 1 µg/mL (≈ 2.81 µM)
Cc1cc(CCCCCOc2c(Cl)cc(-c3ccc(C)s3)cc2Cl)on1 [10(b), 5-{5-[2,6-Dichloro-4-(5-methyl-2-thienyl)phenoxy]pentyl}-3-methylisoxazole] | 4.4 µg/mL (≈ 10.7 µM)
Cc1cc(CCCCCOc2c(Cl)cc(-c3cccs3)cc2Cl)on1 [Example 1(c), 5-{5-[2,6-Dichloro-4-(2-thienyl)phenoxy]pentyl}-3-methylisoxazole] | 2.5 µg/mL (≈ 6.31 µM)
Cc1cc(CCCCCOc2ccc(-c3nccs3)cc2)on1 [Example 20, 3-Methyl-5-{5-[4-(2-thiazolyl)phenoxy]pentyl}-isoxazole] | 0.06 µg/mL (≈ 0.183 µM)
Cc1cc(CCCCCOc2c(Cl)cc(-c3nnn(C)n3)cc2Cl)on1 [23 (1st compd.), 5-{5-[2,6-dichloro-4-(2-methyl-2H-tetrazol-5-yl)phenoxy]pentyl}-3-methylisoxazole] | 2.9 µg/mL (≈ 7.32 µM)

From patent EP0207453B1 (priority 1985, dated 1987)
